Where two headings read alike, the source gives them in different places.
Columns and labels:
[1] = parameters: species or system patients; settings: human, in vivo; for burden estimate from dry mouth / overall burden estimate: 85 days
Description: The systems and methods of the present invention are now described with reference to specific examples of clinical trials and the adverse event data generated in connection therewith, and stored in a database. […] 2015]. DOI: 10.1177/1756287215589250) with a β3 adrenergic receptor agonist and an anti-muscarinic agent. General names for each drug treatment are used herein.
First described is the data analysis involved with implementation of the invention. More particularly, the application of the methodology involves the use of a clinical study database with individual data entries for TEAEs per patient per day. The presence of TEAEs may be plotted against the study day, such that if a patient reported a TEAE from Days 3 to 5, this TEAE was considered present on Days 3, 4 and 5. Also, if an end date was not present in the database, or a TEAE was ongoing, the last study day of the patient was taken as the end day of the TEAE. […] The addition of coloring that corresponds with TEAE severity allows easy discrimination of TEAEs of differing severity in the graph.
In order to visually represent the safety/TEAE burden experienced by a patient, varied weighting may be applied to TEAE severity in each arm in a consistent manner. The graph may, therefore, display the number of weighted TEAEs per day. For purposes of example, in the graphs described herein, TEAEs that were mild, moderate, severe, life threatening/disabling and related to death were weighted to represent 1×, 2×, 3×, 4× and 5×TEAEs per event per day, respectively. Further, the investigator may indicate the seriousness of the TEAE.
An area under the curve (AUC) analysis can be performed in conjunction with the burden of therapy methodology to quantitatively compare potential differences in mean events per day between study arms. This can be performed in conjunction with weighting of events if required. An AUC analysis may be useful in studies that have a similar presence of events in each arm, as an estimate of the mean weighted events per day for each arm can be compared using statistical tools.
The AUC for each individual subject can also be calculated. The AUC represents the total burden that an individual subject experienced during the trial. The AUC is the sum of the burden, for all burdens of an individual subject. Thus, the AUC of subject i is burdeni=Σj=1^t^i burdenij, where ti is the total number of study days of subject i.
The AUC can be used in an analysis of covariance (ANCOVA) as a response variable and the impact of different covariates and factors on the AUC can be investigated. The obvious factor is treatment, but one can include medication history, age, gender or BMI as […] in the ANCOVA analysis.
To analyze the profiles with an ANCOVA, the AUC for dry mouth of each subject was derived. The AUC was then used as the dependent variable in the model. […] It is likely that a negative past experience with anti-muscarinics could influence the recording of a specific adverse event like dry-mouth. In the statistical (ANCOVA) model, prior anti-muscarinics dissatisfaction was added next to treatment as explanatory variable. […] Prior anti-muscarinic dissatisfaction had also a low p-value (p=0.007), meaning that subjects with a negative experience using anti muscarinics also reported more dry mouths. In this study, dry mouth was reported by 29 patients (3.1%) in the adrenergic agonist group and 54 patients (5.8%) in the antimuscarinic group (Batista et al., 2015). An analysis of patients who reported dry mouth was performed to investigate whether there was a difference between arms and approximately 1.5-2.0% of patients reported dry mouth in the antimuscarinic group from Days 17-85 (FIGS. 3B and 4B).

[2] = cited from earlier work
[3] = overactive bladder study, whole study

| burden estimate from dry mouth [1] | overall burden estimate [1] | patients reporting dry mouth per day [1] | SMILES | number of patients reporting dry mouth ([2]; human, in vivo) | patients reporting dry mouth (%) ([2]; human, in vivo) | patients with TEAEs (%) [2, 3] | total number of patients with TEAEs [2, 3] | difference in the proportion of patients with TEAEs ([1]; 10 day) | difference in the proportion of patients with TEAEs ([1]; 85 day) |
| --- | --- | --- | --- | --- | --- | --- | --- | --- | --- |
| 2.9 | 15.1 |  | Nc1nc(CC(=O)Nc2ccc(CCNC[C@H](O)c3ccccc3)cc2)cs1 [β3 adrenergic receptor agonist, mirabegron] | 29 patients | 3.1% | 29.3% | 274 |  |  |
| 5.7 | 19.6 | 1.5-2.0% | O=C(O[C@H]1CN2CCC1CC2)N1CCc2ccccc2[C@@H]1c1ccccc1 [antimuscarinic agent, solifenacin] |  |  |  |  | 0.1% | 5% |

Source: patent publication US20170032106A1, “System and Method for Analyzing Adverse Event Data” (Astellas Pharma Europe Ltd., priority 2015, published 2017)
